Source: patent US11020340B2, “Compositions containing natural products and use thereof for skin and hair” (Seiberg Consulting, LLC, priority 2017, dated 2021)

Assay: ROS-Glo H2O2 assay: removal or elimination of added hydrogen peroxide
Format: biochemical
Conditions: for microM H2O2: Table 2A calibration; for microM H2O2 / Hydrogen peroxide levels, Micro Molar H2O2: 30 minutes at room temperature; for Hydrogen peroxide levels, Micro Molar H2O2: Table 2B
Experimental: Broken-up algae powders (two independent batches) and the prototype formulations of Table 1A were evaluated for their biological activity in the removal or elimination of hydrogen peroxide by using the ROS-Glo™ H2O2 assay kit (Promega). The ROS-Glo™ H2O2 assay is a homogeneous, rapid and sensitive luminescent assay that measures the level of hydrogen peroxide directly in cell culture or in defined reactions. This assay allows identification of conditions or test compounds, such as small molecule inhibitors or inducers that alter ROS levels. An H2O2 Substrate is employed that reacts directly with H2O2 to generate a luciferin precursor. Upon addition of ROS-Glo™ Detection Reagent containing Ultra-Glo™ Recombinant Luciferase and Cysteine, the precursor is converted to luciferin by the d-Cysteine, and the produced luciferin reacts with Ultra-Glo™ Recombinant Luciferase to generate a luminescent signal that is proportional to H2O2 concentration. In the current study H2O2 was added into the reaction wells and the H2O2-degrading activity of the test agents, at various concentrations, was evaluated after 30 minutes of exposure at room temperature. Glutathione (GSH) served as a positive control and the luminescence results (RLU) of different GSH concentrations were calibrated to hydrogen peroxide concentrations (see Table 2A).
In a similar study, one batch of broken-up Porphyridium powder was evaluated for the same biological activity before and after gamma irradiation. The gamma irradiation used was considered weak, and ranged from about 5 to about 15 kGy.
A broken-up algae powder preparation was evaluated for biological activity (removal or elimination of hydrogen peroxide) using the ROS-Glo™ H2O2 assay kit (Promega), as described in Example 2. The powder was suspended in water and used “as is” (non-denatured) for the assay, or was heated to 100 C for 30 minutes to achieve a complete denaturation. Upon heating, the preparation changed its color from red/pink to yellow/green or to light yellow/colorless.

N[C@@H](CCC(=O)N[C@@H](CS)C(=O)NCC(=O)O)C(=O)O [GSH, Glutathione]
microM H2O2 (GSH 0.025 %): 151.69 µM
microM H2O2 (GSH 0.050 %): 105.32 µM
microM H2O2 (GSH 0.100 %): 67.84 µM
microM H2O2 (GSH 0.200 %): 45.76 µM
microM H2O2 (GSH 0.400 %): 14.26 µM
microM H2O2 (GSH 0.800 %): -7.13 µM
microM H2O2 (GSH 1.000 %): -10.27 µM
Hydrogen peroxide levels, Micro Molar H2O2 (0.025 % test agent): 139.566 Micro Molar
Hydrogen peroxide levels, Micro Molar H2O2 (0.050 % test agent): 112.262 Micro Molar
Hydrogen peroxide levels, Micro Molar H2O2 (0.100 % test agent): 76.093 Micro Molar
Hydrogen peroxide levels, Micro Molar H2O2 (0.200 % test agent): 53.453 Micro Molar
Hydrogen peroxide levels, Micro Molar H2O2 (0.400 % test agent): 25.850 Micro Molar
Hydrogen peroxide levels, Micro Molar H2O2 (0.800 % test agent): −6.940 Micro Molar
Hydrogen peroxide levels, Micro Molar H2O2 (1.000 % test agent): −8.278 Micro Molar
Micro Molar H2O2 (Table 2C, 0.0025 % Test/Ref): 58.797 Micro Molar
Micro Molar H2O2 (Table 2C, 0.0050 % Test/Ref): 49.344 Micro Molar
Micro Molar H2O2 (Table 2C, 0.0100 % Test/Ref): 52.736 Micro Molar
Micro Molar H2O2 (Table 2C, 0.0250 % Test/Ref): 41.413 Micro Molar
Micro Molar H2O2 (Table 2C, 0.0500 % Test/Ref): 28.936 Micro Molar
Micro Molar H2O2 (Table 2C, 0.1000 % Test/Ref): 16.548 Micro Molar
Micro Molar H2O2 (Table 2C, 0.2500 % Test/Ref): 6.375 Micro Molar
Micro Molar H2O2 (Table 2C, 0.5000 % Test/Ref): −9.043 Micro Molar
Micro Molar H2O2 (Table 3, 0.025 % test agent): 141.3439 Micro Molar
Micro Molar H2O2 (Table 3, 0.05 % test agent): 98.16 Micro Molar
Micro Molar H2O2 (Table 3, 0.1 % test agent): 53.43 Micro Molar
Micro Molar H2O2 (Table 3, 0.2 % test agent): 10.87 Micro Molar
Micro Molar H2O2 (Table 3, 0.4 % test agent): −14.384 Micro Molar
Micro Molar H2O2 (Table 3, 0.8 % test agent): −14.5708 Micro Molar
